The values that follow come from US20260027071A1, “COMPOSITION FOR PROMOTING COLLAGEN PRODUCTION COMPRISING AMIDATED AMINO ACID” (KYUNGPOOK NATIONAL UNIVERSITY INDUSTRY-ACADEMIC COOPERATION …, priority 2022, published 2026).

“Also recorded” adds a separate entry of the source. Peptide text beside a SMILES is read from it.

The subject of one data set is human dermal fibroblasts. Kind of data set: Wound healing (wound closure) assay, Oris cell migration kit. The format is cell-based. Conditions: HDF. As to the method:
Wound closure analysis was performed using the Oris™ Universal Cell Migration Assembly kit (Platinus Technologies, WI, USA) according to the manufacturer's instructions. The Oris™ stoppers were inserted into each well of the Oris™-compatible 96-well plate, and the plate was inverted to check for complete stopper attachment. A suspension of human dermal fibroblasts in IMDM was added to each well (1×10^4 cells in 100 μL per well) and incubated for 12 hours to allow cell attachment. Then, the stoppers were removed using the stopper tool, and the medium was aspirated using a pipette. The wells were gently washed with 100 μL PBS to remove unattached cells, and the attached cells were treated with drugs in 100 μL culture medium for the specified time, respectively. Images of the wounds were obtained using a phase-contrast microscope (Eclipse TS 100, Nikon Instruments Inc., Melville, NY, USA). The wound areas in the images were quantified using the NIH Image J program. Wound closure (%) was calculated using the following equation: Wound closure (%)=[(A0−At)/A0]×100, where A0 is the area of the original wound and At is the wound area measured at the specified time.

Data set [1] relates to Human dermal fibroblasts (HDF). Put plainly: Cell viability / proliferation (MTT assay) in human dermal fibroblasts. Conditions: for cell proliferation effect of TGF-β1: HDF, analog combined with TGF-β1 (FIG. 7c); for cell viability: HDF treated at 1 mM, result in words. On the technique in general: Tetrazolium assays rely on reduction of a dye to a coloured formazan, in cell work by metabolically active cells.
Description: (§1) Human dermal fibroblasts (HDF) extracted from adult skin were obtained from Cascade Biologics (Portland, OR, USA), and human articular chondrocytes (HAC), human follicle dermal papilla cells (HFCPC), human aortic endothelial cells (HAoEC), and human osteoblasts (HOB) were obtained from PromoCell (Heidelberg, Germany). The cells were cultured in a closed incubator at 37° C. in humidified air comprising 5% CO2. The growth medium for HDF consisted of Iscove's Modified Dulbecco's Medium (IMDM) (Gibco BRL, Grand Island, NY, USA) supplemented with 10% fetal bovine serum (Hyclone, South Logan, UT) and 1% antibiotics (100 U·mL^−1 penicillin, 0.1 mg·mL^−1 streptomycin).
(§2) The cell viability was evaluated using the MTT assay. Briefly, HDF (1×10^4 cells per well), HAC (5×10^3 cells per well), HFDPC (1×10^4 cells per well), HAoEC (5×10^3 cells per well), and HOB (2×10^3 cells per well) were cultured in growth media in a 96-well culture plate for 24 hours, followed by treatment with each drug for 48 hours. After discarding the media, the cells were incubated at 37° C. for 2 hours in fresh growth media (100 μL) containing 1 mg·mL^−1 MTT (Amresco, Solon, OH, USA). The media was removed by aspiration, and the formazan dye accumulated inside the cells was dissolved in 100 μL of dimethyl sulfoxide. The absorbance of the solution was measured at 570 nm using a Spetrostar Nano microplate reader (BMG LABTECH GmbH, Ortenberg, Germany).

The subject of data set [2] is Human dermal fibroblasts (HDF). Kind of data set: Collagen protein in conditioned media (Sircol Collagen Assay) of human dermal fibroblasts. Format: cell-based. To be noted: for change in collagen production induced by individual treatment / change in collagen production induced by combined treatment with glycinamide: FIG. 7b; for change in collagen production induced by individual treatment: concentration not given; for change in collagen production induced by combined treatment with glycinamide: ascorbic acid analog combined with glycinamide; for collagen production (collagen levels secreted into the media): HDF treated at 1 mM, result in words. On the procedure:
The collagen protein levels in the conditioned media were evaluated using the Sircol™ Collagen Assay (Biocolor, Antrim, UK) according to the manufacturer's instructions. […] After discarding the media, the cells were washed with 500 μL of phosphate-buffered saline (PBS), then incubated in 1 mL of serum-free media for another 24 hours. A 1.0 mL media sample (either conditioned media or fresh media as a negative control) was transferred to a microcentrifuge tube, mixed with 100 μL of collagen isolation and concentration reagent, and incubated overnight at 4° C. The samples were centrifuged at 13,000×g for 10 minutes at 4° C., and the supernatant was carefully removed using a pipette without disturbing the pellet. Each tube was then added with 500 μL of Sircol dye reagent, inverted five times, and shaken at room temperature for 30 minutes. After centrifugation, the supernatant was discarded, and the pellet was washed with 500 μL of cold acid-salt washing reagent, followed by another centrifugation step. The pellet was then dissolved in 250 μL of alkali reagent, and a 200 μL portion was transferred to a 96-well plate. The optical density of the solution was read at 555 nm using a Spectrostar Nano microplate reader (BMG LABTECH GmbH, Ortenberg, Germany).

In data set [3] the test system is Human dermal fibroblasts (HDF). To be noted: 48 h.
Description: as §1, §2

For the compound `O=C1O[C@H]([C@@H](O)CO)C(O)=C1O[C@H]1O[C@H](CO)[C@@H](O)[C@H](O)[C@H]1O` [AG, ascorbyl 2-O-glucoside, reference compound], the wound closure entry in the data set with human dermal fibroblasts (early stage (24 hours)) is reported as “slightly promoted wound closure”. Moreover, the wound closure entry in the data set with human dermal fibroblasts (later stages (36 and 48 hours)) is on record as “inhibited”. For the same compound, the “cell proliferation effect of TGF-β1” value in data set [1] is listed as “significantly reduced”. Moreover, in data set [2] (HDF), the “change in collagen production induced by individual treatment” value (from here on “change … by individual treatment”) amounted to 27.2% and the “change in collagen production induced by combined treatment with glycinamide” value (shortened to “change … with glycinamide”) is given as 123.6%.
With `CCCCCCCCC(CCCCCC)C(=O)OC[C@H](OC(=O)C(CCCCCC)CCCCCCCC)[C@H]1OC(=O)C(OC(=O)C(CCCCCC)CCCCCCCC)=C1OC(=O)C(CCCCCC)CCCCCCCC` (some centres unmarked) [ATI, ascorbyl tetraisopalmitate, reference compound], the wound closure entry with human dermal fibroblasts (early stage (24 hours)) is “slightly promoted wound closure”. In the data set with human dermal fibroblasts (later stages (36 and 48 hours)), the wound closure entry is on record as “inhibited”. The “cell proliferation effect of TGF-β1” value in data set [1] was “significantly reduced”. For the same compound, in data set [2] (HDF), the “change … by individual treatment” value stood at 25.5% and the “change … with glycinamide” value is reported as 124.6%.
On the same counts, the results for `CCOC1=C(O)C(=O)O[C@@H]1[C@@H](O)CO` [EAA, 3-O-ethyl ascorbic acid, reference compound] are “slightly promoted wound closure”, “inhibited”, “significantly reduced”, 19.5% and 115.5%.
On to `O=C1O[C@H]([C@@H](O)CO)C([O-])=C1OP(=O)([O-])[O-].O=C1O[C@H]([C@@H](O)CO)C([O-])=C1OP(=O)([O-])[O-].[Mg+2].[Mg+2].[Mg+2]` [MAP, Magnesium ascorbyl phosphate, reference compound], for which, in the data set with human dermal fibroblasts (analog combined with glycinamide), the “further enhancement of wound closure by combined treatment with glycinamide” value is reported as “further enhanced”. The wound closure entry with human dermal fibroblasts (treated alone, up to 48 hours (FIG. 8b)) is on record as “promoted wound closure to a similar extent as ascorbic acid”. Further, in data set [2] (HDF), the “change … by individual treatment” value is 25.3% and the “change … with glycinamide” value is recorded as 118.4%.
For `CC(=O)NCC(=O)O` [N-acetyl glycine, reference compound], in data set [2], the “collagen production (collagen levels secreted into the media)” value was “did not affect collagen production”.
For the compound `C[C@H](N)C(N)=O.Cl` [alaninamide, L-Alaninamide HCl], in data set [2], the “collagen production (collagen levels secreted into the media)” value is on record as “enhanced the collagen levels”.
On the same count and under the same terms, for `Cl.Cl.N=C(N)NCCC[C@H](N)C(N)=O` [argininamide, L-Argininamide diHCl] the value was “enhanced the collagen levels”.
On to `C[C@H]1[C@H](C)CC[C@]2(C(=O)O)CC[C@]3(C)C(=CC[C@@H]4[C@@]5(C)C[C@@H](O)[C@H](O)[C@@](C)(CO)[C@@H]5CC[C@]43C)[C@H]12` [asiatic acid], for which, in data set [3], the “concentrations that reduced cell viability” value is given as “above 300 μM” and the “concentrations with no effect on cell viability” value is reported as “below 100 μM”. The collagen production result in data set [2] (HDF, 10 μM) is “decreased”.
In the case of `Cl.NC(=O)C[C@H](N)C(N)=O` [asparaginamide, L-Asparaginamide HCl], in data set [2], the “collagen production (collagen levels secreted into the media)” value was “no significant effect”.
As for `Cl.NC(=O)[C@@H](N)CC(=O)O` [aspartic acid α-amide, L-Aspartic acid α-amide HCl], the cell viability entry in data set [1] is given as “reducing effect”. For the same compound, the “collagen production (collagen levels secreted into the media)” value in data set [2] is listed as “no significant effect”.
Take `Cl.NC(=O)[C@@H](N)CS` [cysteinamide, L-Cysteinamide HCl]: the “collagen production (collagen levels secreted into the media)” value in data set [2] is given as “enhanced the collagen levels”.
Same read-out and setting: the value for `NC(=O)[C@@H](N)CCC(=O)O` [glutamic acid α-amide, L-Glutamic acid α-amide] was “enhanced the collagen levels”.
On to `Cl.NC(=O)CC[C@H](N)C(N)=O` [glutaminamide, L-Glutaminamide HCl], for which the “collagen production (collagen levels secreted into the media)” value in data set [2] is “enhanced the collagen levels”.
On the same count and under the same terms, for `NC(=O)CC[C@H](N)C(=O)O` [glutamine, L-Glutamine, reference compound] the value was “increased collagen”.
On the same count and under the same terms, the value for `CCOC(=O)CN.Cl` [glycine ethyl ester, glycine ethyl ester HCl, reference compound] was “did not affect collagen production”.
Same read-out and setting: for `COC(=O)CN.Cl` [glycine methyl ester, glycine methyl ester HCl, reference compound] the value was “somewhat reducing effect”.
Consider `NCC(=O)O` [glycine, Glycine, reference compound], for which the “collagen production (collagen levels secreted into the media)” value in data set [2] is “most effectively increased collagen; also recorded: enhanced collagen production”. For the same compound, the collagen production entry in data set [2] (HDF, 3 and 5 mM) is “significantly reduced”.
Regarding `NCC(=O)NCC(=O)O` [glycyl glycine, reference compound] (H-Gly-Gly-OH), in data set [2], the “collagen production (collagen levels secreted into the media)” value is on record as “did not affect collagen production”.
In the case of `NCC(=O)NCC(=O)O` [glycylglycine] (H-Gly-Gly-OH), the “collagen production (collagen levels secreted into the media)” value in data set [2] was “promoted collagen production”. For the same compound, the collagen production entry in data set [2] (HDF, 0.25 mM) was “increased collagen production”; in data set [2] (HDF, 1-2 mM) it was “greatest enhancement of collagen production”; in data set [2] (HDF, 3 and 5 mM), “slightly reduced”.
For `Cl.NC(=O)[C@@H](N)Cc1c[nH]cn1` [histidinamide, L-Histidinamide HCl], the “collagen production (collagen levels secreted into the media)” value in data set [2] is given as “no significant effect”.
Still for that read-out and setting: for `CC[C@H](C)[C@H](N)C(N)=O.Cl` [isoleucinamide, L-Isoleucinamide HCl] the value was “enhanced the collagen levels”; for `CC[C@H](C)[C@H](N)C(=O)O` [isoleucine, L-Isoleucine, reference compound], “increased collagen”; for `CC(C)C[C@H](N)C(N)=O.Cl` [leucinamide, L-Leucinamide HCl], “enhanced the collagen levels”.
On the same count and under the same terms, the value for `CC(C)C[C@H](N)C(=O)O` [leucine, L-Leucine, reference compound] was “increased collagen”.
`Cl.Cl.NCCCC[C@H](N)C(N)=O` [lysinamide, L-Lysinamide diHCl]: the cell viability entry in data set [1] is recorded as “reducing effect”. The “collagen production (collagen levels secreted into the media)” value in data set [2] is listed as “no significant effect”.
Turning to `CSCC[C@H](N)C(N)=O.Cl` [methioninamide, L-Methioninamide HCl], the “collagen production (collagen levels secreted into the media)” value in data set [2] was “enhanced the collagen levels”.
As to `Cl.NC(=O)[C@@H](N)Cc1ccccc1` [phenylalaninamide, L-Phenylalaninamide HCl], the “collagen production (collagen levels secreted into the media)” value in data set [2] is recorded as “enhanced the collagen levels”.
Still for that read-out and setting: the value for `Cl.NC(=O)[C@@H]1CCCN1` [prolinamide, L-Prolinamide HCl] was “enhanced the collagen levels”; that for `O=C(O)[C@@H]1CCCN1` [proline, L-Proline, reference compound] was “increased collagen”.
The same measure, in the same setting: the value for `Cl.NC(=O)[C@@H](N)CO` [serinamide, L-Serinamide HCl] was “no significant effect”.
As for `C[C@@H](O)[C@H](N)C(N)=O.Cl` [threoninamide, L-Threoninamide HCl], the “collagen production (collagen levels secreted into the media)” value in data set [2] is on record as “enhanced the collagen levels”.
Same read-out and setting: for `Cl.NC(=O)[C@@H](N)Cc1c[nH]c2ccccc12` [tryptophanamid, L-Tryptophanamide HCl] the value was “no significant effect”; for `Cl.NC(=O)[C@@H](N)Cc1ccc(O)cc1` [tyrosinamide, L-Tyrosinamide HCl], “enhanced the collagen levels”; for `CC(C)[C@H](N)C(N)=O.Cl` [valinamide, L-Valinamide HCl], “enhanced the collagen levels”.
Take madecassoside [reference compound]: in data set [2] (HDF, 10 μM), the collagen production result is recorded as “no significant effect”. The “concentrations at which collagen production increased” value in data set [2] (HDF, non-cytotoxic concentrations (FIG. 10b)) turned out to be 100 µM.
